What was measured:
[1] = tested on: AtT-20 cells; assay: Test Example 3: suppression of CRF-induced ACTH secretion in AtT-20 cells; format: cell-based, mouse; details: 10 μM of compound; 100 nM CRF; 90 minutes; adherent AtT-20 substrain
Protocol: Influence on ACTH secretion from mouse pituitary corticotrophic cell line AtT-20 cells was analyzed. […] This adherent AtT-20 cell substrain was cultured on a poly-D-lysine-coated 48-well plate at a density of 1×10^5 cells/well for 2 nights, which was provided for assay. […] After washing the cells once with this buffer, a predetermined concentration of the compound was added thereto, followed by addition of a buffer containing 100 nM of a corticotropin-releasing factor (CRF), and followed by culturing at 37° C. for 90 minutes in a CO2 incubator. Then, the plate was gently stirred, then centrifuged at 1200 rpm for 5 minutes at room temperature and the buffer was recovered from the intermediate layer. The ACTH concentration was determined using an ACTH assay kit (Mitsubishi Medical, ACTH IRMA “Yuka”).

[2] = target: T1, human 14273 receptor (Homo sapiens, UniProt Q5NUL3); assay: Test Example 1: regulating effect for 14273 receptor function (agonist effect), change in intracellular calcium level by FLIPR; format: cell-based; details: CHO cell line (No. 104) expressing human 14273 receptor, change of fluorescent intensity after 35 seconds
T1 construct: expressed in transfected cells
T1 sequence (Q5NUL3 1-361): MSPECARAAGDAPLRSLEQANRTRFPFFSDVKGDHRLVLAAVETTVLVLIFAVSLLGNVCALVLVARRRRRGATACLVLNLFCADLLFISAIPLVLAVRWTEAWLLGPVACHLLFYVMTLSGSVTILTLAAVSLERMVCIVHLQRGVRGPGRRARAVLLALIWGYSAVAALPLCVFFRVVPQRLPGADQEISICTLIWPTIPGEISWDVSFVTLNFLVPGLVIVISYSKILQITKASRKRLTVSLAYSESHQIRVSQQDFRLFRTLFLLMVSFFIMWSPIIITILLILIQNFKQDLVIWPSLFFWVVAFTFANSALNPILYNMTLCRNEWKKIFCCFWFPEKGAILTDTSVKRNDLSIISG
Protocol: CHO cell lines (No. 104) in which a human 14273 receptor has expressed was diluted to contain 3×10^4/100 μl cells, and dispensed in Black walled 96-well plate (Costar) at a density of 100 μl/well, followed by culturing overnight in a CO2 incubator. A change in intracellular calcium level was measured using FLIPR (Molecular Device). The method is described as below. 50 μg of Fluo-3AM (DOJIN) was dissolved in 21 μl of DMSO (DOJIN) and an equal volume of 20% pluronic acid (Molecular Probes) was added thereto, followed by mixing them. The mixture was added to 10.6 ml of the assay buffer [which is prepared by adding 10 ml of a solution, which is prepared by adding 20 ml of 1 M HEPES (pH 7.4, DOJIN) to 1 L of HBSS (Invitrogen), dissolving 710 mg of probenecid (Sigma) in 5 ml of 1 N NaOH, and further adding 5 ml of the above-mentioned HBSS/HEPES solution and mixing it.] supplemented with 105 μl of fetal bovine serum to prepare a fluorescent dye solution. The medium of the cell plate was removed, the fluorescent dye solution was dispensed in 100 μl each per well. The culturing was performed in a CO2 incubator for 1 hour to incorporate the fluorescent dye into the cells. The cells after culturing were washed with the assay buffer. The compounds to be added to the cells were diluted to each concentration with a buffer solution to which CHAPS (DOJIN) was added in 0.015%, and dispensed in a plate for the test sample. Following the pretreatment above, a change in intracellular calcium level after addition of the compound was determined with FLIPR to investigate the agonist effect. An EC50 value was calculated from dose-reaction curve using the change of fluorescent intensity after 35 seconds from the reaction initiation.

[3] = tested on: 3T3-L1 adipocytes; assay: Test Example 2: suppression of lipolysis (glycerol production) in differentiated 3T3-L1 adipocytes; format: cell-based, mouse; details: treated 45 minutes, isoproterenol 1×10^−10 M, compound 40 μM and 20 μM (FIG. 14)
Protocol: Influence on lipolysis was investigated with use of mouse fibroblast-like cell line 3T3-L1 cells that can differentiate to adipocyte. […] The 3T3-L cells were plated on a plate and cultured to become confluent. The cells were then treated for 48 hours in the medium containing 10 μg/ml of insulin, 0.5 mM of 3-isobutyl-1-methylxanthine (IBMX) and 2.5 μM of dexamethasone to induce differentiation into adipocytes. The culturing was continued for further 11 days. After the 3T3-L1 cells were differentiated into adipocytes, a change in the amount of glycerol produced after lipolysis was assayed. After the cells were washed with modified Krebs-Ringer buffer, they were treated with the compounds for 45 minutes, and the supernatant was then recovered. The glycerol content in the supernatant was determined using a Free Glycerol Determination Kit (Sigma).

| Structure (SMILES) | lowering of the amount of ACTH secretion increased by CRF stimulation [1] [%] | EC50 [2] [µM] | amount of glycerol production increased by isoproterenol stimulation (lipolysis) [3] | amount of glycerol production increased by isoproterenol stimulation (lipolysis) ([3]; listed as Reference example 16) |
| --- | --- | --- | --- | --- |
| O=C(O)CCc1ccc(OCc2cccc(Oc3ccc(F)cc3)c2)c(F)c1 [Example 161, 3-(3-fluoro-4-{[3-(4-fluorophenoxy)benzyl]oxy}phenyl)propanoic acid] | 49 | ≤ 10 | – | – |
| O=C(O)CCc1ccc(OC2CCc3ccccc32)c(Cl)c1 (centres unmarked) [Reference Example 16, 3-Chloro-4-[(2,3-dihydro-1H-inden-1-yl)oxy]benzenepropanoic acid] | – | ≤ 10 | inhibitory effect | lowering the amount of the glycerol production |

— patent US8008525B2, “Receptor function regulating agent” (Takeda Pharmaceutical Company Limited, priority 2003, dated 2011)
